According to publication PMC11295857 (Malaria Journal, 2024):

Tested on: P. falciparum Dd2 strain
Format: cell-based, Plasmodium falciparum
Settings: single dose, 72 h in vitro treatment; Fig. 1B; normalized to non-treated cultures

Substance: poly-L-glutamate
- parasite growth inhibition (in words): parasite growth inhibition was not observed
